“Also recorded” adds a separate entry of the source.
Key:
[1] = system: endometrial stromal cells (eSCs); assay: Decidualization of menstrual effluent-derived eSCs induced by cAMP ± MPA, IGFBP1 and PRL by ELISA; format: cell-based, human; details: for cAMP-induced decidualization (IGFBP1 and PRL production): quercetin 25 μM 4 hr before cAMP 0.5 mM for 48 hr, vs vehicle; for cAMP+MPA-induced decidualization (IGFBP1 and PRL production): control- and case-eSCs, quercetin 25 μM 4 hr before cAMP 0.5 mM + 0.1 μM MPA for 48 hr; for potentiation of decidualization: comparators tested in the same eSC system as quercetin
Experimental: Methods: eSCs were isolated from menstrual effluent (ME) obtained from healthy controls and surgically diagnosed endometriosis cases. To induce decidualization, passage 2-3 eSCs DMEM 2% MSC-FBS were treated with dibutryl-cAMP (cAMP, 0.5 mM)±10^-7 M medroxyprogesterone acetate (MPA) for 48 hr. eSCs were pre-treated with vehicle or quercetin (25 μM) 4 hr prior to decidualization. PRL and IGFBP1 protein and mRNA in the culture supernatants and cells, respectively, were assessed by ELISA and RT-qPCR, respectively. Endometrial stromal cells (eSCs) were isolated and grown in DMEM 10% MSC-FBS, PSQ, normocin. Passage 2-3 eSCs were split into 96 well plates or 6-well plates in DMEM 10% MSC-FBS. After overnight culture in DMEM 2% MSC-FBS, decidualization of eSCs was induced after exposure to vehicle or 25 μM quercetin for 4 hrs, followed by 0.5 mM cAMP±0.1 μM MPA for 48 hrs. Decidualization was assessed by measuring IGFBP1 and/or PRL levels in the culture supernatants by ELISA. Progesterone sensitivity was also assessed by measuring progesterone-induced genes. Two sample t tests (unpaired or paired) were used to determine significance. Assessment of progesterone sensitive genes eSCs were treated vehicle or 25 μM quercetin for 4h followed by veh or 0.5 mM cAMP+0.1 uM MPA for 6h; RNA was isolated; and qPCR was performed for the P4 sensitives gene: HAND2, or other P4 target genes.
Roughly 30-50% of endometriosis patient experience infertility. The cause of endometriosis and its link to infertility is not completely understood. It has been shown that endometrial stromal cells (eSCs) from patients with endometriosis show decreased decidualization, a progesterone-driven process critical for implantation. Quercetin is a flavonoid with anti-inflammatory and immunomodulatory activities. […] In addition, quercetin improves infertility in patients with polycystic ovary syndrome (PCOS). We assessed the effect of quercetin on decidualization and progesterone sensitivity using eSCs. Methods: eSCs were isolated from menstrual effluent (ME) obtained from healthy controls and surgically diagnosed endometriosis cases. To induce decidualization, passage 2-3 eSCs were treated with dibutryl-cAMP (cAMP, 0.25-0.5 mM)±10^-7M medroxyprogesterone acetate (MPA) for 48 hr. eSCs were pre-treated with vehicle or quercetin (25 μM) 4 hr prior to decidualization. PRL and IGFBP1 protein and mRNA in the culture supernatants and cells, respectively, were assessed by ELISA and RT-qPCR, respectively. Progesterone sensitivity was also assessed by measuring progesterone-induced genes, PLZF and IHH. Two sample t tests (unpaired or paired) were used to determine significance.

[2] = system: menstrual effluent-derived eSCs (ME-eSCs); assay: MPA-stimulated gene expression in ME-eSCs of endometriosis cases and controls (qPCR, scRNA-seq); format: cell-based, human
Experimental: Methods: Low passage (p2-3) menstrual effluent-derived eSCs (ME-eSCs) obtained from women with confirmed endometriosis or healthy controls were stimulated with vehicle or MPA, a stable P4 analogue. qPCR and single cell RNA-seq (scRNA-seq, n=4 controls and 4 cases) were used to measure P4-induced gene expression and identify dysregulated pathways. Subcellular localization of PR isoforms and the PR chaperone protein, FKBP52, was assessed using immunofluorescent microscopy and western blotting of total, nuclear, and cytoplasmic preparations of ME-eSCs±MPA stimulation.

[3] = system: P4 target genes (HAND2, PLZF, IHH) in endometrial stromal cells; assay: Progesterone (P4) target gene expression in eSCs by qPCR after quercetin pre-treatment; format: cell-based, human; details: control- and case-eSCs, p<0.05; for HAND2 mRNA expression (P4 target gene): quercetin 25 μM 4 h, then vehicle or 0.5 mM cAMP + 0.1 μM MPA 6 h, qPCR
Experimental: Endometrial stromal cells (eSCs) were isolated and grown in DMEM 10% MSC-FBS, PSQ, normocin. Passage 2-3 eSCs were split into 96 well plates or 6-well plates in DMEM 10% MSC-FBS. After overnight culture in DMEM 2% MSC-FBS, decidualization of eSCs was induced after exposure to vehicle or 25 μM quercetin for 4 hrs, followed by 0.5 mM cAMP±0.1 μM MPA for 48 hrs. […] Progesterone sensitivity was also assessed by measuring progesterone-induced genes. Two sample t tests (unpaired or paired) were used to determine significance. Assessment of progesterone sensitive genes eSCs were treated vehicle or 25 μM quercetin for 4h followed by veh or 0.5 mM cAMP+0.1 uM MPA for 6h; RNA was isolated; and qPCR was performed for the P4 sensitives gene: HAND2, or other P4 target genes. […] Progesterone sensitivity was also assessed by measuring progesterone-induced genes, PLZF and IHH.

[4] = system: endometrial stromal cells; assay: SASP protein expression in endometrial stromal cells by western blotting; format: cell-based, human; details: quercetin 25 μM vs vehicle, DMEM 2% FBS, 2 days, confluent cells; normalised to GAPDH
Experimental: FIGS. 4A-4B: Quercetin-treatment of endometrial stromal cells reduces the senescence-associated secretory phenotype (SASP) and the expression SASP proteins. (4A) Treatment of confluent endometrial stromal cells with vehicle (Veh) vs. quercetin (25 μM, Q+) in DMEM 2% FBS for 2 days alters the expression of SASP proteins (or SASPs, IL-1β, TNF-membrane form [TNF-MF], TNF-soluble form [TNF-SF], MMP3, and Lamin B1 [LamB1*] vs. GAPDH [housekeeping protein for normalization]) by endometrial stromal cells, as determined by western blotting. Relative molecular weight markers (MWM) are shown on the left. (4B) Quantification of Veh-treated vs. Q-treated protein bands are shown in 4B. *Note: All proteins are positive SASPs (increased protein expression positively correlates with senescence), except LAMB1, which is lost with the senescence phenotype. Quercetin reduces senescence-associated secretory phenotype or SASP.

[5] = system: endometrial implants; details: rat model of endometriosis; cited from earlier work
[6] = system: patients with polycystic ovary syndrome (PCOS); details: cited from earlier work
[7] = ME-eSCs from cases vs. controls, qPCR
[8] = scRNA-seq, n=4 controls and 4 cases

In the case of `CC(=O)O[C@]1(C(C)=O)CC[C@H]2[C@@H]3C[C@H](C)C4=CC(=O)CC[C@]4(C)[C@H]3CC[C@@]21C` [MPA, medroxyprogesterone acetate], the “potentiation of cAMP-induced decidualization by addition of MPA” value ([1]; control-eSCs, 0.1 μM MPA with cAMP, 48 hr) is reported as “potentiates”, the “MPA-stimulated IHH gene expression” value [2, 7] is reported as “significantly blunted” and the “MPA-stimulated PLZF gene expression” value [2, 7] is reported as “significantly blunted”. For the same molecule, the “MPA-induced expression of CEBPD, DKK1, FABP4, MGP, and NNMT” value [2, 8] was “significantly unregulated in controls only” and the “MPA-induced expression of IGFBP5, MALAT1, DIO2, and KRT17” value [2, 8] was “significantly downregulated in controls only”.

In the case of `O=c1c(O)c(-c2ccc(O)c(O)c2)oc2cc(O)cc(O)c12` [Quercetin, quercetin], the “cAMP-induced decidualization (IGFBP1 and PRL production)” value ([1]; case-eSCs (endometriosis), p<0.05) is reported as “significantly enhanced; also recorded: increased”, the “cAMP+MPA-induced decidualization (IGFBP1 and PRL production)” value ([1]; p<0.05) is reported as “increased” and the “cAMP+MPA-induced decidualization (IGFBP1 and PRL production)” value ([1]; p<0.05, listed as quercetin) is reported as “significantly enhanced; also recorded: further enhances”. For the same molecule, the “cAMP-induced decidualization (IGFBP1 and PRL production)” value ([1]; control-eSCs, p<0.02) was “significantly enhanced; also recorded: increased”, the “HAND2 mRNA expression (P4 target gene)” value [3] was “increases” and the “HAND2 mRNA expression (P4 target gene)” value ([3]; listed as quercetin) was “significantly increased over vehicle”. For the same molecule, the “MPA-induced IHH mRNA expression” value ([3]; quercetin 25 μM vs vehicle) was “significantly increased over vehicle”, the “MPA-induced PLZF mRNA expression” value ([3]; quercetin 25 μM vs vehicle) was “significantly increased over vehicle” and the “senescence-associated secretory phenotype (SASP) and expression of SASP proteins (IL-1β, TNF-MF, TNF-SF, MMP3, Lamin B1)” value [4] was “reduces”. The anti-inflammatory effects [5] was “exerted anti-inflammatory effects”, the “growth of endometrial implants” value [5] was “inhibited” and the “infertility in PCOS patients” value [6] was “improves”.

With `O=C(O)c1ccccc1O` [SA, salicylic acid, reference compound] the potentiation of decidualization [1] was “did not potentiate decidualization”.

In the case of `CC(C)Cc1ccc(C(C)C(=O)O)cc1` (stereo not shown) [ibuprofen, reference compound], the potentiation of decidualization [1] is reported as “did not potentiate decidualization”.
